Measurements: patent publication US20250387400A1, “TYK2 INHIBITORS” (BIOGEN MA INC., priority 2022, published 2025)
Where a name gives a salt, the structure may show the parent alone. Read-outs that look alike come from different tables or passages of the source.

Key:
Type in all cases: biochemical
[1] = biological target: T1, catalytic kinase (JH1) domain of human JAK3 (Homo sapiens, UniProt P52333); assay: ADP-Glo kinase assay, JAK3 kinase domain
T1 construct: Catalytic activities of recombinant JAK2, JAK3 and TYK2 kinase domain
T1 sequence (P52333 822-1111 limits assumed): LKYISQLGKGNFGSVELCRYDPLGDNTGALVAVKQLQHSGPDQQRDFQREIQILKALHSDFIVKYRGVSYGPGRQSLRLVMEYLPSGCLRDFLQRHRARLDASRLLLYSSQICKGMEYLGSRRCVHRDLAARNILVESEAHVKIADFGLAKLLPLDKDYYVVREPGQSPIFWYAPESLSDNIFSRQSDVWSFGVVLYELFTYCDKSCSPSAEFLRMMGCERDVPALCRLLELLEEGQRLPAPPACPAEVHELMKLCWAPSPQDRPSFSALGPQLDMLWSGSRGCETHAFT
Method: (§1) As summarized in Table 3 below, compounds of the disclosure were assessed for their ability to inhibit TYK2, JAK1, JAK2, and JAK3 activity.
(§2) The kinase activity of recombinantly generated catalytic kinase (also known as JH1) domain of human JAK1, JAK2, JAK3 and TYK2 were evaluated in a plate-based assay using the ADP-Glo™ Kinase Assay platform. […] The reactions proceed for 100 minutes and the catalytic activity is quantified by first depleting the unused ATP, converting the hydrolyzed ADP into ATP to generate luminescence in a luciferase reaction; which is the basis of the ADP-Glo platform. Compounds are tested at either 10 μM or 1 μM top concentration, 11 points of 3-fold dilution. The data is normalized and the percent activity versus log concentration of compound is fitted with a 4-parameter logistic model to generate a curve and an IC50 value.

[2] = biological target: T2, catalytic kinase (JH1) domain of human TYK2 (Homo sapiens, UniProt P29597); assay: ADP-Glo kinase assay, TYK2 kinase domain
T2 construct: recombinantly generated catalytic kinase (also known as JH1) domain of human JAK1, JAK2, JAK3 and TYK2
T2 sequence (P29597 897-1176 limits assumed): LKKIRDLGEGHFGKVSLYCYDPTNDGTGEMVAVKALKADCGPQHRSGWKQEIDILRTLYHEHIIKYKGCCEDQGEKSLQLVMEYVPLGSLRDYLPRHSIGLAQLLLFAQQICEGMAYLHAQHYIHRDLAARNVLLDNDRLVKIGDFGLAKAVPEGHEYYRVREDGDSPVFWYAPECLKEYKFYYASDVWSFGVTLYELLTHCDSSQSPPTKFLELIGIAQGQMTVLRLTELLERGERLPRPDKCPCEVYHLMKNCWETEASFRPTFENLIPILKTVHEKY
Method: as §1, §2

[3] = biological target: T3, catalytic kinase (JH1) domain of human JAK1 (Homo sapiens, UniProt P23458); assay: ADP-Glo kinase assay, JAK1 kinase domain
T3 construct: 4 nM of recombinant JAK1 kinase domain is used to phosphorylate
T3 sequence (P23458 875-1153 limits assumed): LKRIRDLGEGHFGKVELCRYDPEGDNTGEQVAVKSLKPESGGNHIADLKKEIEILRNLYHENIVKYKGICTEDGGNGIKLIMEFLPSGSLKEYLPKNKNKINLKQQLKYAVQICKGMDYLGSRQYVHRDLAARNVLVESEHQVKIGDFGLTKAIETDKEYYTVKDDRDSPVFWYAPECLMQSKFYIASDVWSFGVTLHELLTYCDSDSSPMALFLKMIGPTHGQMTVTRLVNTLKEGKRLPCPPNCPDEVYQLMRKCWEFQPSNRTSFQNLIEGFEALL
Method: as §1, §2

[4] = biological target: T4, catalytic kinase (JH1) domain of human JAK2 (Homo sapiens, UniProt O60674); assay: ADP-Glo kinase assay, JAK2 kinase domain
T4 construct: Catalytic activities of recombinant JAK2, JAK3 and TYK2 kinase domain
T4 sequence (O60674 849-1124 limits assumed): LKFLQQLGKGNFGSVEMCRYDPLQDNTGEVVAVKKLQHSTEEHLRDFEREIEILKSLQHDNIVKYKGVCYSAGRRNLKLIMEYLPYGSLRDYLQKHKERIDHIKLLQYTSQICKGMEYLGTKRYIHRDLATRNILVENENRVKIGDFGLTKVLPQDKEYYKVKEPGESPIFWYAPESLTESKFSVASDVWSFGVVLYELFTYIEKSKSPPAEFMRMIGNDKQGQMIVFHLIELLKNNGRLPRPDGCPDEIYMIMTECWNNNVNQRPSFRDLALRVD
Method: as §1, §2

[5] = 0.3 nM recombinant JAK3 kinase domain, 50 μM JAK3-974 peptide, 4 μM ATP, 100 minutes, read-out: JAK3 biochem IC50 (nM) Mean
[6] = 2 nM recombinant TYK2 kinase domain, 50 μM JAK3-974 peptide, 10 μM ATP, 100 minutes, read-out: TYK2 biochem IC50 (nM) Mean
[7] = 4 nM recombinant JAK1 kinase domain, 50 μM JAK3-342 peptide, 35 μM ATP, 100 minutes, read-out: JAK1 biochem IC50 (nM) Mean
[8] = 0.2 nM recombinant JAK2 kinase domain, 50 μM JAK3-974 peptide, 15 μM ATP, 100 minutes, read-out: JAK2 biochem IC50 (nM) Mean

Structure (SMILES) | IC50 [1, 5] [nM] | IC50 [2, 6] [nM] | IC50 [3, 7] [nM] | IC50 [4, 8] [nM] | IC50 [1] [nM] | IC50 [2] [nM] | IC50 [3] [nM] | IC50 [4] [nM]
CO[C@H]1C[C@@H](N2C3CCC2CN(c2ccnc4[nH]c(-c5cnn(C)c5)nc24)C3)C1 [Example 6, 7-(8-((1s,3S)-3-methoxycyclobutyl)-3,8-diazabicyclo[3.2.1]octan-3-yl)-2-(1-methyl-1H-pyrazol-4-yl)-3H-imidazo[4,5-b]pyridine] | > 10000 | 305 | 1800 | 1150 | – | – | – | –
COCC[C@]1(C#N)C[C@@H](N2C3CCC2CN(c2ccnn4cc(-c5cnn(C)c5)cc24)C3)C1 [Example 39, (1s,3s)-1-(2-methoxyethyl)-3-(3-(6-(1-methyl-1H-pyrazol-4-yl)pyrrolo[1,2-b]pyridazin-4-yl)-3,8-diazabicyclo[3.2.1]octan-8-yl)cyclobutane-1-carbonitrile] | 460 | 6.95 | 88 | 54 | – | – | – | –
COc1cc(-c2cc3c(N4CC5CCC(C4)N5C4COC4)ccnc3[nH]2)ccn1 [Example 18, 2-(2-methoxypyridin-4-yl)-4-(8-(oxetan-3-yl)-3,8-diazabicyclo[3.2.1]octan-3-yl)-1H-pyrrolo[2,3-b]pyridine] | > 1000 | 30.5 | 49.5 | 97 | – | – | – | –
Cn1cc(-c2cc3c(N4CC5CCC(C4)N5[C@H]4C[C@H](CC#N)C4)ccnn3c2)cn1 [Example 45, 2-((1r,3r)-3-(3-(6-(1-methyl-1H-pyrazol-4-yl)pyrrolo[1,2-b]pyridazin-4-yl)-3,8-diazabicyclo[3.2.1]octan-8-yl)cyclobutyl)acetonitrile] | 9400 | 195 | 2400 | 2700 | – | – | – | –
Cn1cc(-c2nc3c(N4C[C@H]5CC[C@@H](C4)N5C4CC(C(F)F)C4)ccnc3[nH]2)cn1 (stereo partly drawn) [Example 10, 7-((1R,5S)-8-(3-(difluoromethyl)cyclobutyl)-3,8-diazabicyclo[3.2.1]octan-3-yl)-2-(1-methyl-1H-pyrazol-4-yl)-3H-imidazo[4,5-b]pyridine] | 1350 | 226 | 340 | 180 | – | – | – | –
Cn1cc(-c2cc3c(N4CC5CCC(C4)N5[C@@H]4CCC45COC5)ccnn3c2)cn1 (single isomer, unassigned) [Example 41] | – | – | – | – | 8450 | 71 | 2200 | 420
N#CC1CC(N2C3CCC2CN(c2ccnn4cc(-c5ccnnc5)cc24)C3)C1 (stereo not drawn) [Example 55, 3-(3-(6-(pyridazin-4-yl)pyrrolo[1,2-b]pyridazin-4-y1)-3,8-diazabicyclo[3.2.1]octan-8-yl)cyclobutane-1-carbonitrile] | – | – | – | – | 625 | 11.5 | 130 | 80.5
COc1cc(-c2cc3c(N4CC5CCC(C4)N5C4CC(C#N)C4)ccnc3[nH]2)ccn1 (stereo not drawn) [Example 13, 3-(3-(2-(2-methoxypyridin-4-yl)-1H-pyrrolo[2,3-b]pyridin-4-yl)-3,8-diazabicyclo[3.2.1]octan-8-yl)cyclobutane-1-carbonitrile] | – | – | – | – | 82 | 4.05 | 7.9 | 14
COc1cc(-c2cc3c(N4CC5CCC(C4)N5C4COC4)ccnn3c2)cnn1 [Example 53, 6-(6-methoxypyridazin-4-yl)-4-(8-(oxetan-3-yl)-3,8-diazabicyclo[3.2.1]octan-3-yl)pyrrolo[1,2-b]pyridazine] | > 10000 | 715 | 4200 | 5700 | – | – | – | –
Cn1cc(-c2cc3c(N4CC5CCC(C4)N5[C@H]4CC[C@@H]4O)ccnn3c2)cn1 (racemic) [Example 49, rac-(1S,2S)-2-(3-(6-(1-methyl-1H-pyrazol-4-yl)pyrrolo[1,2-b]pyridazin-4-yl)-3,8-diazabicyclo[3.2.1]octan-8-yl)cyclobutan-1-ol] | > 10000 | 425 | > 10000 | 7700 | – | – | – | –
COC[C@]1(C#N)C[C@H](N2C3CCC2CN(c2ccnn4cc(-c5cnn(C)c5)cc24)C3)C1 [Example 42, (1s,3s)-1-(methoxymethyl)-3-(3-(6-(1-methyl-1H-pyrazol-4-yl)pyrrolo[1,2-b]pyridazin-4-yl)-3,8-diazabicyclo[3.2.1]octan-8-yl)cyclobutane-1-carbonitrile] | 2400 | 100 | 675 | 400 | – | – | – | –
COc1cc(-c2cc3c(N4CC5CCC(C4)N5[C@H]4C[C@H](C#N)C4)ccnc3[nH]2)ccn1 [Example 15, (1R,3r)-3-(3-(2-(2-methoxypyridin-4-yl)-1H-pyrrolo[2,3-b]pyridin-4-yl)-3,8-diazabicyclo[3.2.1]octan-8-yl)cyclobutane-1-carbonitrile] | – | – | – | – | 74.3 | 2.13 | 13.7 | 15
Cn1cc(-c2cn3nccc(N4CC5CCC(C4)N5[C@H]4C[C@H](C#N)C4)c3n2)cn1 [Example 66, (1R,3r)-3-(3-(2-(1-methyl-1H-pyrazol-4-yl)imidazo[1,2-b]pyridazin-8-yl)-3,8-diazabicyclo[3.2.1]octan-8-yl)cyclobutane-1-carbonitrile] | – | – | – | – | 102 | 3.83 | 15.1 | 21.3
Cn1cc(-c2cc3c(N4CC5CCC(C4)N5[C@H]4C[C@@](C)(C#N)C4)ccnn3c2)cn1 [Example 35, (1s,3s)-1-methyl-3-(3-(6-(1-methyl-1H-pyrazol-4-yl)pyrrolo[1,2-b]pyridazin-4-yl)-3,8-diazabicyclo[3.2.1]octan-8-yl)cyclobutane-1-carbonitrile] | 190 | 4.7 | 89 | 31.5 | – | – | – | –
Cn1cc(-c2cc3c(N4CC5CCC(C4)N5C4CC(F)(F)C4)ccnn3c2)cn1 [Example 52, 4-(8-(3,3-difluorocyclobutyl)-3,8-diazabicyclo[3.2.1]octan-3-yl)-6-(1-methyl-1H-pyrazol-4-yl)pyrrolo[1,2-b]pyridazine] | 574 | 1.9 | 57.2 | 35 | – | – | – | –
Cn1cc(-c2cn3nccc(N4CC5CCC(C4)N5[C@H]4C[C@@H](C#N)C4)c3n2)cn1 [Example 65, (1S,3s)-3-(3-(2-(1-methyl-1H-pyrazol-4-yl)imidazo[1,2-b]pyridazin-8-yl)-3,8-diazabicyclo[3.2.1]octan-8-yl)cyclobutane-1-carbonitrile] | – | – | – | – | 1650 | 70.7 | 227 | 293
Cn1cc(-c2cc3c(N4CC5CCC(C4)N5[C@H]4C[C@](C)(C#N)C4)ccnn3c2)cn1 [Example 34, (1r,3r)-1-methyl-3-(3-(6-(1-methyl-1H-pyrazol-4-yl)pyrrolo[1,2-b]pyridazin-4-yl)-3,8-diazabicyclo[3.2.1]octan-8-yl)cyclobutane-1-carbonitrile] | 2550 | 23 | 720 | 295 | – | – | – | –
CN1CC(N2C3CCC2CN(c2ccnc4[nH]c(-c5cnn(C)c5)nc24)C3)C1 [Example 12, 2-(1-methyl-1H-pyrazol-4-yl)-7-(8-(1-methylazetidin-3-yl)-3,8-diazabicyclo[3.2.1]octan-3-yl)-3H-imidazo[4,5-b]pyridine trifluoroacetate] | > 10000 | 580 | 2850 | 2300 | – | – | – | –
Cn1cc(-c2cc3c(N4CC5CCC(C4)N5C4CC(C#N)C4)ccnc3[nH]2)cn1 [Example 17, (1R,3r)-3-(3-(2-(1-methyl-1H-pyrazol-4-yl)-1H-pyrrolo[2,3-b]pyridin-4-yl)-3,8-diazabicyclo[3.2.1]octan-8-yl)cyclobutane-1-carbonitrile] | 67.7 | 2.8 | 36.7 | 20 | – | – | – | –
Cn1cc(-c2nc3c(N4CC5CCC(C4)N5[C@H]4CC[C@@H]4O)ccnc3[nH]2)cn1 (single isomer, unassigned) [Example 7, (1RS,2RS)-2-(3-(2-(1-methyl-1H-pyrazol-4-yl)-3H-imidazo[4,5-b]pyridin-7-yl)-3,8-diazabicyclo[3.2.1]octan-8-yl)cyclobutan-1-ol] | > 10000 | 610 | > 10000 | 3300 | – | – | – | –
Cn1cc(-c2cc3c(N4CC5CCC(C4)N5[C@H]4C[C@H](C#N)C4(C)C)ccnn3c2)cn1 (single isomer, unassigned) [Example 46] | – | – | – | – | 1850 | 34 | 955 | 215
